In ChEMBL document CHEMBL5584354, “Impact of Conjugation of the Reactive Oxygen Species (ROS)-Generating Catalytic Moiety with Membrane-Active Antimicrobial Peptoids: Promoting Multitarget Mechanism and Enhancing Selectivity” (J Med Chem, 2024):
≈ marks a conversion by molar mass, not a printed value. Non-standard residues stand in square brackets, D forms with d. Residues, ends and D or L forms follow the SMILES beside them. *: point of attachment. X1 = NC(=O)[C@H](Cc1c[nH]cn1)NC(=O)CNC(=O)[C@@H](N)CN*; Gly(N(CH2)2(3-indolyl)) = O=C(O)CNCCc1c[nH]c2ccccc12; Nspe = C[C@H](NCC(=O)O)c1ccccc1; Nphe = O=C(O)CNCc1ccccc1; Nlys = NCCCCNCC(=O)O

Assays:
[1] = Hemolytic activity in male Sprague-Dawley rat erythrocytes at 100 uM incubated for 1 hr by absorbance based method relative to control; type: toxicity, cell-based, Erythrocyte; conditions: read-out: Activity
[2] = Hemolytic activity in male Sprague-Dawley rat erythrocytes assessed as concentration required for 50% hemolysis incubated for 1 hr by absorbance based method; type: toxicity, cell-based, Erythrocyte
Erythrocyte = assay: Hemolytic activity in male Sprague-Dawley rat erythrocytes assessed as concentration required for 10% hemolysis incubated for 1 hr by absorbance based method; type: toxicity, cell-based
[3] = Selectivity index, ratio of HC10 for hemolytic activity in male Sprague-Dawley rat erythrocytes to MIC for antibacterial activity against Escherichia coli ATCC 25922; type: toxicity; conditions: read-out: Selectivity Index
[4] = Hemolytic activity in male Sprague-Dawley rat erythrocytes at 25 uM incubated for 1 hr by absorbance based method relative to control; type: toxicity, cell-based, Erythrocyte; conditions: read-out: Activity
Staphylococcus aureus = assay: Antibacterial activity against Staphylococcus aureus ATCC 25923 assessed as inhibition of bacterial growth incubated for 24 hrs by broth dilution method; type: functional
[5] = Hemolytic activity in male Sprague-Dawley rat erythrocytes at 50 uM incubated for 1 hr by absorbance based method relative to control; type: toxicity, cell-based, Erythrocyte; conditions: read-out: Activity
Escherichia coli = assay: Antibacterial activity against Escherichia coli ATCC 25922 assessed as inhibition of bacterial growth incubated for 24 hrs by broth dilution method; type: functional

## C[C@@H](c1ccccc1)N(CC(N)=O)C(=O)CN(CCCCN)C(=O)CN(CCCCN)C(=O)CN(C(=O)CN(C(=O)CN(CCCCN)C(=O)CN(C(=O)CN(C(=O)CN(CCCCN)C(=O)CN(CCc1c[nH]c2ccccc12)C(=O)CN(CCc1c[nH]c2ccccc12)C(=O)CNCCCCN)[C@@H](C)c1ccccc1)[C@@H](C)c1ccccc1)[C@@H](C)c1ccccc1)[C@@H](C)c1ccccc1
[1]
  hemolysis at 1 h, 100 µM: 11.1%
[2]
  HC50 at 1 h: > 100 µM
Erythrocyte
  HC10: 75.3 µM
[3]
  selectivity ratio: 13.5
[4]
  hemolysis at 1 h, 25 µM: 4.95%
Staphylococcus aureus
  MIC: 3.1 µM (≈ 5.78 µg/mL)
[5]
  hemolysis at 1 h, 50 µM: 8.77%
Escherichia coli
  MIC: 6.3 µM (≈ 11.7 µg/mL)

## C[C@@H](c1ccccc1)N(CC(N)=O)C(=O)CN(C(=O)CN(CCCCN)C(=O)CN(C(=O)CN(C(=O)CN(CCCCN)C(=O)CN(C(=O)CN(C(=O)CN(CCCCN)C(=O)CN(CCc1c[nH]c2ccccc12)C(=O)CN(CCc1c[nH]c2ccccc12)C(=O)CNCCCCN)[C@@H](C)c1ccccc1)[C@@H](C)c1ccccc1)[C@@H](C)c1ccccc1)[C@@H](C)c1ccccc1)[C@@H](C)c1ccccc1
[1]
  hemolysis at 1 h, 100 µM: 73.9%
[2]
  HC50 at 1 h: 63.6 µM
Erythrocyte
  HC10: 7.9 µM
[3]
  selectivity ratio: 2.5
[4]
  hemolysis at 1 h, 25 µM: 33%
Staphylococcus aureus
  MIC: < 0.8 µM
[5]
  hemolysis at 1 h, 50 µM: 55.3%
Escherichia coli
  MIC: 3.1 µM (≈ 5.88 µg/mL)

## C[C@@H](c1ccccc1)N(CC(N)=O)C(=O)CN(CCCCN)C(=O)CN(Cc1ccccc1)C(=O)CN(Cc1ccccc1)C(=O)CN(CCCCN)C(=O)CN(C(=O)CN(C(=O)CN(CCCCN)C(=O)CN(Cc1ccccc1)C(=O)CN(Cc1ccccc1)C(=O)CN(CCCCN)C(=O)CNC(=O)[C@H](Cc1c[nH]cn1)NC(=O)CNC(=O)CN)[C@@H](C)c1ccccc1)[C@@H](C)c1ccccc1 (H-GGHG[Nlys][Nphe][Nphe][Nlys][Nspe][Nspe][Nlys][Nphe][Nphe][Nlys][Nspe]-NH2)
[1]
  hemolysis at 1 h, 100 µM: 20.8%
[2]
  HC50 at 1 h: > 100 µM
Erythrocyte
  HC10: 58.4 µM
[3]
  selectivity ratio: 2.3
[4]
  hemolysis at 1 h, 25 µM: 0.91%
Staphylococcus aureus
  MIC: 25 µM (≈ 47.8 µg/mL)
[5]
  hemolysis at 1 h, 50 µM: 6.84%
Escherichia coli
  MIC: 25 µM (≈ 47.8 µg/mL)

## C[C@@H](c1ccccc1)N(CC(=O)N(CC(=O)N(CCCCN)CC(=O)N(CC(=O)N(CC(=O)N(CCCCN)CC(=O)N(CC(=O)N(CC(=O)N(CCCCN)CC(=O)N(CC(=O)N(CC(N)=O)Cc1ccccc1)Cc1ccccc1)Cc1ccccc1)Cc1ccccc1)Cc1ccccc1)Cc1ccccc1)Cc1ccccc1)C(=O)CN(CCCCN)C(=O)CNC(=O)[C@H](Cc1c[nH]cn1)NC(=O)CNC(=O)CN (H-GGHG[Nlys][Nspe][Nphe][Nlys][Nphe][Nphe][Nlys][Nphe][Nphe][Nlys][Nphe][Nphe]-NH2)
[1]
  hemolysis at 1 h, 100 µM: 1.36%
[2]
  HC50 at 1 h: > 100 µM
Erythrocyte
  HC10: > 100 µM
[4]
  hemolysis at 1 h, 25 µM: -0.43%
Staphylococcus aureus
  MIC: > 25 µM
[5]
  hemolysis at 1 h, 50 µM: 0.18%
Escherichia coli
  MIC: 25 µM (≈ 50.7 µg/mL)

## C[C@@H](c1ccccc1)N(CC(N)=O)C(=O)CN(CCCCN)C(=O)CN(C(=O)CN(C(=O)CN(CCCCN)C(=O)CN(C(=O)CN(C(=O)CN(CCCCN)C(=O)CN(C(=O)CN(C(=O)CN(CCCCN)C(=O)CNC(=O)[C@H](Cc1c[nH]cn1)NC(=O)CNC(=O)CN)[C@@H](C)c1ccccc1)[C@@H](C)c1ccccc1)[C@@H](C)c1ccccc1)[C@@H](C)c1ccccc1)[C@@H](C)c1ccccc1)[C@@H](C)c1ccccc1 (H-GGHG[Nlys][Nspe][Nspe][Nlys][Nspe][Nspe][Nlys][Nspe][Nspe][Nlys][Nspe]-NH2)
[1]
  hemolysis at 1 h, 100 µM: 49.8%
[2]
  HC50 at 1 h: 100 µM
Erythrocyte
  HC10: 27.7 µM
[3]
  selectivity ratio: 2.2
[4]
  hemolysis at 1 h, 25 µM: 6.5%
Staphylococcus aureus
  MIC: 6.3 µM (≈ 12.4 µg/mL)
[5]
  hemolysis at 1 h, 50 µM: 22.4%
Escherichia coli
  MIC: 12.5 µM (≈ 24.6 µg/mL)

## C[C@@H](c1ccccc1)N(CC(N)=O)C(=O)CN(C(=O)CN(CCCCN)C(=O)CN(Cc1ccccc1)C(=O)CN(Cc1ccccc1)C(=O)CN(CCCCN)C(=O)CN(Cc1ccccc1)C(=O)CN(Cc1ccccc1)C(=O)CN(CCCCN)C(=O)CN(CCc1c[nH]c2ccccc12)C(=O)CN(CCc1c[nH]c2ccccc12)C(=O)CN(CCCCN)C(=O)[C@H](Cc1c[nH]cn1)NC(=O)CNC(=O)CN)[C@@H](C)c1ccccc1 (H-GGH[Nlys][Gly(N(CH2)2(3-indolyl))][Gly(N(CH2)2(3-indolyl))][Nlys][Nphe][Nphe][Nlys][Nphe][Nphe][Nlys][Nspe][Nspe]-NH2)
[1]
  hemolysis at 1 h, 100 µM: 40.2%
[2]
  HC50 at 1 h: > 100 µM
Erythrocyte
  HC10: 16.3 µM
[3]
  selectivity ratio: 1.3
[4]
  hemolysis at 1 h, 25 µM: 13.8%
Staphylococcus aureus
  MIC: 1.6 µM (≈ 3.35 µg/mL)
[5]
  hemolysis at 1 h, 50 µM: 25.5%
Escherichia coli
  MIC: 12.5 µM (≈ 26.2 µg/mL)

## C[C@@H](c1ccccc1)N(CC(N)=O)C(=O)CN(CCCCN)C(=O)CN(CCCCN)C(=O)CN(C(=O)CN(C(=O)CN(CCCCN)C(=O)CN(C(=O)CN(C(=O)CN(CCCCN)C(=O)CN(CCc1c[nH]c2ccccc12)C(=O)CN(CCc1c[nH]c2ccccc12)C(=O)CN(CCCCN)C(=O)[C@H](Cc1c[nH]cn1)NC(=O)CNC(=O)CN)[C@@H](C)c1ccccc1)[C@@H](C)c1ccccc1)[C@@H](C)c1ccccc1)[C@@H](C)c1ccccc1 (H-GGH[Nlys][Gly(N(CH2)2(3-indolyl))][Gly(N(CH2)2(3-indolyl))][Nlys][Nspe][Nspe][Nlys][Nspe][Nspe][Nlys][Nlys][Nspe]-NH2)
[1]
  hemolysis at 1 h, 100 µM: 6.4%
[2]
  HC50 at 1 h: > 100 µM
Erythrocyte
  HC10: > 100 µM
[3]
  selectivity ratio: > 4
[4]
  hemolysis at 1 h, 25 µM: 4.98%
Staphylococcus aureus
  MIC: 6.3 µM (≈ 13.3 µg/mL)
[5]
  hemolysis at 1 h, 50 µM: 5.9%
Escherichia coli
  MIC: 25 µM (≈ 52.9 µg/mL)

## C[C@@H](c1ccccc1)N(CC(=O)N(CCCCN)CC(=O)N(CC(=O)N(CC(=O)N(CCCCN)CC(=O)N(CC(=O)N(CC(=O)N(CCCCN)CC(=O)N(CC(=O)N(CC(N)=O)Cc1ccccc1)Cc1ccccc1)Cc1ccccc1)Cc1ccccc1)Cc1ccccc1)Cc1ccccc1)C(=O)CN(Cc1ccccc1)C(=O)CN(CCCCN)C(=O)[C@H](Cc1c[nH]cn1)NC(=O)CNC(=O)CN (H-GGH[Nlys][Nphe][Nspe][Nlys][Nphe][Nphe][Nlys][Nphe][Nphe][Nlys][Nphe][Nphe]-NH2)
[1]
  hemolysis at 1 h, 100 µM: 0.92%
[2]
  HC50 at 1 h: > 100 µM
Erythrocyte
  HC10: > 100 µM
[4]
  hemolysis at 1 h, 25 µM: -0.71%
Staphylococcus aureus
  MIC: > 25 µM
[5]
  hemolysis at 1 h, 50 µM: -0.22%
Escherichia coli
  MIC: 25 µM (≈ 49.3 µg/mL)

## C[C@@H](c1ccccc1)N(CC(=O)NC[C@H](N)C(=O)NCC(=O)N[C@@H](Cc1c[nH]cn1)C(N)=O)C(=O)CN(CCCCN)C(=O)CN(CCCCN)C(=O)CN(C(=O)CN(C(=O)CN(CCCCN)C(=O)CN(C(=O)CN(C(=O)CN(CCCCN)C(=O)CN(CCc1c[nH]c2ccccc12)C(=O)CN(CCc1c[nH]c2ccccc12)C(=O)CNCCCCN)[C@@H](C)c1ccccc1)[C@@H](C)c1ccccc1)[C@@H](C)c1ccccc1)[C@@H](C)c1ccccc1 (H-[Nlys][Gly(N(CH2)2(3-indolyl))][Gly(N(CH2)2(3-indolyl))][Nlys][Nspe][Nspe][Nlys][Nspe][Nspe][Nlys][Nlys][Nspe]-X1)
[1]
  hemolysis at 1 h, 100 µM: 5.26%
[2]
  HC50 at 1 h: > 100 µM
Erythrocyte
  HC10: > 100 µM
[4]
  hemolysis at 1 h, 25 µM: 4.93%
Staphylococcus aureus
  MIC: 6.3 µM (≈ 13.5 µg/mL)
[5]
  hemolysis at 1 h, 50 µM: 6.1%
Escherichia coli
  MIC: > 25 µM

## C[C@@H](c1ccccc1)N(CC(=O)N(CCCCN)CC(=O)N(CC(=O)N(CC(=O)N(CCCCN)CC(=O)N(CC(=O)N(CC(=O)NC[C@H](N)C(=O)NCC(=O)N[C@@H](Cc1c[nH]cn1)C(N)=O)Cc1ccccc1)Cc1ccccc1)[C@@H](C)c1ccccc1)[C@@H](C)c1ccccc1)C(=O)CN(C(=O)CN(CCCCN)C(=O)CN(Cc1ccccc1)C(=O)CN(Cc1ccccc1)C(=O)CNCCCCN)[C@@H](C)c1ccccc1 (H-[Nlys][Nphe][Nphe][Nlys][Nspe][Nspe][Nlys][Nspe][Nspe][Nlys][Nphe][Nphe]-X1)
[1]
  hemolysis at 1 h, 100 µM: 7.73%
[2]
  HC50 at 1 h: > 100 µM
Erythrocyte
  HC10: > 100 µM
[4]
  hemolysis at 1 h, 25 µM: 0.66%
Staphylococcus aureus
  MIC: 25 µM (≈ 51.1 µg/mL)
[5]
  hemolysis at 1 h, 50 µM: 2.32%
Escherichia coli
  MIC: > 25 µM

## C[C@@H](c1ccccc1)N(CC(=O)N(CCCCN)CC(=O)N(CCc1c[nH]c2ccccc12)CC(=O)N(CCc1c[nH]c2ccccc12)CC(=O)NC[C@H](N)C(=O)NCC(=O)N[C@@H](Cc1c[nH]cn1)C(N)=O)C(=O)CN(CCCCN)C(=O)CN(CCCCN)C(=O)CN(C(=O)CN(C(=O)CN(CCCCN)C(=O)CN(C(=O)CN(C(=O)CNCCCCN)[C@@H](C)c1ccccc1)[C@@H](C)c1ccccc1)[C@@H](C)c1ccccc1)[C@@H](C)c1ccccc1 (H-[Nlys][Nspe][Nspe][Nlys][Nspe][Nspe][Nlys][Nlys][Nspe][Nlys][Gly(N(CH2)2(3-indolyl))][Gly(N(CH2)2(3-indolyl))]-X1)
[1]
  hemolysis at 1 h, 100 µM: 3.38%
[2]
  HC50 at 1 h: > 100 µM
Erythrocyte
  HC10: > 100 µM
[4]
  hemolysis at 1 h, 25 µM: 3.83%
Staphylococcus aureus
  MIC: 6.3 µM (≈ 13.5 µg/mL)
[5]
  hemolysis at 1 h, 50 µM: 4.23%
Escherichia coli
  MIC: > 25 µM
